Source: US20200255492A1, “LEPTIN PEPTIDES AND THEIR USE FOR TREATING NEUROLOGICAL DISORDERS” (UNIVERSITY OF DUNDEE, priority 2017, published 2020)

Key:
Format in all cases: cell-based, Sprague Dawley rats
[1] = tested on: GluA1 surface expression in cultured hippocampal neurons; experiment: Surface labelling of AMPA receptor subunit GluA1 (immunocytochemistry); conditions: for GluA1 surface expression, low concentration alone: 10 nM; for surface GluA1 expression: 50 nM, 15 min; for GluA1 surface expression in the presence of Aβ1-42: leptin peptide 10 nM plus Aβ1-42; for GluA1 staining in the presence of bpV: bpV plus leptin or leptin (116-130)
Description: Hippocampal cultures were prepared from neonatal Sprague Dawley rats as before (O'Malley et al. 2007). Briefly, neonatal Sprague Dawley rats (1-3 days old) were killed by cervical dislocation in accordance with Schedule 1 of the United Kingdom Government Animals (Scientific Procedures) Act, 1986 and the hippocampi removed. After washing in HEPES buffered saline (HBS) comprising (mM): NaCl 135; KCl 5; CaCl2 1; MgCl2 1; HEPES 10; D-glucose 25 at pH 7.4; cells were treated with protease Type X and Type XIV (0.5 mg/ml; Sigma) for 25 min at room temperature. Dissociated cells were plated onto sterile dishes (Falcon 3001) treated with poly-1-lysine (20 μg/ml; 1-2 h) and maintained in MEM with serum replacement-2 (Sigma) in a humidified atmosphere of 5% CO2 and […] at 37° C. for up to 3 weeks.
To monitor GluA1 surface expression, immunocytochemistry was performed on hippocampal cultures (7-14 DIV) as before (Moult et al. 2010). Neurons were treated with agents for 20 min at room temperature (20-22° C.) before incubation with an antibody against an N-terminal region of GluA1 (sheep anti-GluR1; in house antibody against synthetic peptide (RTSDSRDHTRVDWKR) corresponding to 253-267 residues of GluR1; 1:100; Moult et al. 2010) at 4° C. Neurons were then fixed with 4% paraformaldehyde (5 min) before adding an appropriate fluorescently labelled secondary.
Trafficking of AMPA receptors to and away from synapses is crucial for various forms of activity-dependent synaptic plasticity (Collingridge et al. 2004). Our studies indicate that leptin regulates AMPA receptor trafficking as leptin promotes trafficking of GluA1 to hippocampal synapses (Moult et al. 2010). Moreover the ability of leptin to induce LTP in adult hippocampus requires the delivery of GluA1 to synapses by leptin (Moult et al. 2010). Thus, to assess if the leptin fragments also influence AMPA receptor trafficking processes, the surface expression of GluA1 was assayed in cultured hippocampal neurons (Moult et al. 2010). In agreement with previous studies, application of leptin (50 nM; 15 min) increased surface GluA1 expression to 184±7%; (n=36; P<0.001; FIG. 2C,D) compared with control hippocampal neurons. Similarly GluA1 surface expression was elevated (to 160±6% of control; n=36; P<0.001) after exposure to 50 nM leptin (116-130; FIG. 2C,D), whereas GluA1 surface expression (98±4% of control; n=36; P>0.05) was not altered after treatment with 50 nM leptin (22-56).

[2] = tested on: juvenile hippocampal slices; experiment: HFS-induced synaptic plasticity and its inhibition by Aβ1-42; conditions: for synaptic transmission after HFS in slices exposed to Aβ1-42: 25 nM before Aβ1-42
Description: (§1) Parasagittal hippocampal slices (300 μm) were prepared from either P13-21 or 12-24-week-old male Sprague Dawley rats as previously (Moult et al. 2010). Brains were rapidly removed and placed in ice-cold artificial CSF (aCSF; bubbled with 95% O2 and 5% CO2) containing the following (in mm): 124 NaCl, 3 KCl, 26 NaHCO3, 1.25 NaH2PO4, 2 CaCl2, 1 MgSO4, and 10 d-glucose. Once prepared, parasagittal slices were allowed to recover at room temperature in oxygenated aCSF for 1 h before use. Slices were transferred to a submerged chamber maintained at room temperature and perfused with artificial cerebrospinal fluid at 2 ml min^−1. Standard extracellular recordings were used to monitor evoked field excitatory postsynaptic potentials (fEPSP) from stratum radiatum. The Schaffer collateral-commissural pathway was stimulated (constant voltage; 0.1 ms) at 0.033 Hz, using a stimulus intensity that evoked a peak amplitude ˜50% of the maximum. Synaptic potentials were low pass filtered at 2 kHz and digitally sampled at 10 kHz. The fEPSP slope was measured and expressed relative to baseline. Synaptic records are the average of 4 consecutive responses and stimulus artefacts are blanked for clarity. Recordings were made using an Axopatch 200B amplifier and analyzed using LTP v2.4 software. In synaptic plasticity studies, the degree of potentiation was calculated 30-35 min after HFS and expressed as a percentage of baseline±standard error of mean (SEM).
Several studies indicate that soluble Aβ oligomers impair activity-dependent synaptic plasticity, as exposure to Aβ inhibits hippocampal LTP (Shankar et al. 2008; Li et al. 2009) and enhances LTD (Shankar et al. 2008). Moreover, our recent studies indicate that leptin reverses the detrimental effects of Aβ1-42 on both LTP and LTD (Doherty et al. 2013). Thus we assessed if either of the fragments mirrored the protective actions of leptin on hippocampal synaptic plasticity. Initially we determined that application of leptin prevented the acute effects of Aβ1-42 on LTP. In control slices, synaptic plasticity was induced using high frequency stimulation (HFS; 100 Hz 10 trains of 8 stimuli) which increased synaptic transmission to 127±3.4% of baseline (n=8; P<0.01).

[3] = tested on: juvenile hippocampal slices (P13-21); experiment: Primed burst stimulation: conversion of STP into persistent increase in synaptic transmission (fEPSP); conditions: 50 nM, at 40 min
Description: as §1
It is known that NMDA receptors contribute little to basal excitatory synaptic transmission but synaptic activation of NMDA receptors is crucial for LTP induction at hippocampal synapses (Bliss and Collingridge 1993). Previous studies indicate that lep-tin enhances the magnitude of activity-dependent LTP in acute hippocampal slices (Oomura et al. 2006) and following direct administration into the hippocampus in vivo (Wayner et al. 2004). We have also shown that leptin facilitates NMDA receptor-dependent synaptic plasticity as leptin promotes conversion of short term potentiation (STP) to hippocampal LTP (Shanley et al. 2001). […]

Substance	GluA1 surface expression, Aβ1-42 alone ([1]; 500 nM, 20 min, control Aβ42-1-treated neurons)	synaptic transmission after HFS, Aβ peptide alone ([2]; control slices 127±3.4%, 40 min)	synaptic transmission after primed burst stimulation [3]	GluA1 surface expression, low concentration alone [1]	surface GluA1 expression [1]	GluA1 surface expression in the presence of Aβ1-42 [1]	synaptic transmission after HFS in slices exposed to Aβ1-42 [2]	GluA1 staining in the presence of bpV [1]
Aβ1-42: amyloid beta 1-42, toxin used in the AD models [reference compound]	70±2 % of control	96±7.5 % of baseline	–	–	–	–	–	–
leptin (22-56): leptin fragment amino acids 22-56 (Bachem), comparison fragment (VPIQKVQDDTKTLIKTIVTRINDISHTQSVSSKQK; UniProt P41159 22-56, looked up, fragment) [reference compound]	–	–	only STP was observed	no significant effect on GluA1 trafficking per se	98±4 % of control	51±2 % of control	107±3.3 % of baseline	–
leptin: the metabolic hormone leptin, whole (full length) leptin molecule; human leptin from Sigma in SH-SY5Y work	–	–	155±6.1 % of baseline	113±7 % of control	184±7 % of control	101±4 % of control	135±6.3 % of baseline	131±6.6 % of control
SCSLPQTSGLQKPES (listed as Mus musculus) [leptin (116-130)]	–	–	143±6.4 % of baseline	–	160±6 % of control	97±4 % of control	136±5.5 % of baseline	148±8.1 % of control
